We go through one compound from patent US20230190690A1, “[…] AND/OR […] FOR CORONAVIRUS DISEASE 2019 (COVID-19)” (NEOPHARMA JAPAN CO., LTD., priority 2020, published 2023).

The experiment deals with variants of SARS-CoV-2. In words: Infection of cells with a SARS-CoV-2 variant in the same manner. Format: cell-based. The note with it: cells infected with a variant in the same manner.

As to `NCC(=O)CCC(=O)O` [5-ALA, 5-aminolevulinic acid], the “inhibitory effect on SARS-CoV-2 infection and/or proliferation (variant)” value is on record as “inhibitory effect on SARS-CoV-2 infection and/or proliferation is expected”.
